This data set in a line: Chemical stability in aqueous buffer at PH 7.3 by spontaneous hydrolysis. The class given is physicochemical.
Usually half-life stands for the time in which the quantity being followed falls by half. A high value points to slow loss. `Cc1cc([N+](=O)[O-])nn1C(=O)c1ccccc1F` showed a half-life of 9.6 min.

For `O=C(c1ccccc1Cl)n1cccn1`, the half-life is 66 min. Against the preceding molecule, the half-life is about 6.9-fold higher.

`O=C(c1ccccc1Cl)n1cc(Cl)cn1` gave a half-life of 180 min. Compared with the last molecule, the half-life is about 2.7-fold higher.

`O=C(c1cccc([N+](=O)[O-])c1)n1cc(Cl)cn1` had a half-life of 13.2 min.

For the molecule `Cc1nn(C(=O)c2ccc(Cl)cc2)c(C)c1Br`, the half-life is 126 min.

Turning to `Cc1ccccc1C(=O)n1cc(Br)cn1`, the half-life is 372 min. Compared with the last molecule, the half-life is about 3-fold higher.

`O=C(Nc1ccccc1)c1ccn(C(=O)c2ccccc2)n1` showed a half-life of 30.6 min. This half-life lies about 12-fold lower than the previous one.

As to `COC(=O)c1ccnn1C(=O)c1ccc(Cl)cc1`, the half-life was 17.4 min.

Take `Cc1nn(C(=O)c2ccc(Cl)cc2Cl)c(C)c1Cl`: the half-life was 432 min.

Molecule `Cc1cc(C)n(C(=O)c2ccc(Cl)c(Cl)c2)n1` gave a half-life of 600 min.

Molecule `Cc1ccc(C(=O)n2ccc([N+](=O)[O-])n2)cc1` gave a half-life of 6 min.

On to `CC(=O)Nc1ccc(C(=O)n2ccc(C)n2)cc1`, for which the half-life is 600 min.

`O=C(c1ccccc1)n1cc([N+](=O)[O-])cn1` showed a half-life of 2.4 min. This half-life is about 250-fold lower than that of the molecule before.

Molecule `Cc1cc(C)n(C(=O)c2ccc(Cl)c([N+](=O)[O-])c2)n1` had a half-life of 336 min.

For `Cc1ccc(C(=O)n2cc(Br)cn2)cc1`, the half-life was 126 min.

Molecule `Cc1nn(C(=O)c2ccc(Cl)cc2)c(C)c1Cl` showed a half-life of 156 min. This half-life and that of the molecule before are within 1.5-fold of each other.

Regarding `O=C(c1c(F)cccc1F)n1cc(Br)cn1`, the half-life is 186 min.

Molecule `Cc1ccccc1C(=O)n1cc(Cl)cn1` showed a half-life of 252 min.

For the molecule `Cc1nn(C(=O)c2ccccc2F)c(C)c1Cl`, the half-life is 318 min.

In turn, `O=C(c1cc(F)c(F)cc1Cl)n1cc(Br)cn1` had a half-life of 43.8 min.

As for `Cc1nn(C(=O)c2ccc(Cl)c([N+](=O)[O-])c2)c(C)c1Cl`, the half-life was 132 min.

In turn, `O=C(c1ccc(F)cc1)n1cc(Cl)cn1` had a half-life of 96 min. The half-life values of the last two molecules are within 1.5-fold of each other.

Regarding `Cc1ccccc1C(=O)n1cccn1`, the half-life is 72 min.

In turn, `Cc1nn(C(=O)c2cccc(Br)c2)c(C)c1Br` gave a half-life of 186 min.

`O=C(c1ccc(Cl)c(Cl)c1)n1cccn1` showed a half-life of 66 min.

As for `COc1cc(C(=O)n2ccc(C)n2)cc(OC)c1OC`, the half-life was 252 min.

For the molecule `Cc1cc(C)n(C(=O)c2ccc(C)c(Br)c2)n1`, the half-life was 1510 min.

As for `CC(C)(C)c1ccc(C(=O)n2cc(Cl)cn2)cc1`, the half-life is 132 min.

Take `O=C(c1ccccc1)n1ccc([N+](=O)[O-])n1`: the half-life was 1.98 min. This half-life lies about 67-fold lower than the previous one.

With `Cc1ccccc1C(=O)n1cc([N+](=O)[O-])cn1`, the half-life is 33 min.

`Cc1cccc(C(=O)n2cc(Br)cn2)c1` gave a half-life of 306 min.

The molecule `Cc1ccc(C(=O)c2ccn(C(=O)c3ccc(F)cc3)n2)c(C)c1` gave a half-life of 12.6 min. Compared with the last molecule, the half-life is about 24-fold lower.

On to `Cc1nn(C(=O)c2ccccc2Br)c(C)c1Cl`, for which the half-life was 750 min.

Consider `O=C(c1cc(F)ccc1Cl)n1cccn1`, for which the half-life was 150 min.

Values taken from ChEMBL document CHEMBL1148811, “N-benzoylpyrazoles are novel small-molecule inhibitors of human neutrophil elastase” (J Med Chem, 2007).
